Source: patent US11965159B2, “Compositions and methods for regulating proteins and nucleic acids activities” (THE BROAD INSTITUTE, INC., priority 2019, dated 2024)

How the values were obtained:
HEK293T cells = test: Cell viability assay (ATP content) of HEK293T cells; type: cell-based; details: up to 20 μM, 24 h
Method: FIG. 23—Cell viability assay (ATP content) of HEK293T cells in the presence of compounds. Measurement of ATP content of HEK293T cells upon incubating with BRD7087 and BRD5779 (5-20 μM) for 24 h. Error bars represent ±S.D. from technical replicates (n=3).
FIG. 67. Cell viability assay (ATP content) of HEK293T cells in the presence of compounds. Measurement of ATP content of HEK293T cells upon incubating with BRD7087 and BRD5779 (5-20 μM) for 24 h. Error bars represent ±S.D. from technical replicates (n=3).

dCas9 = test: dCas9-based transcriptional activation of HBG1 gene in HEK293FT cells (RT-qPCR); type: cell-based; details: for inhibition of the HBG1 transcriptional activation: 48 hours
Method: Transcription activation experiments and quantitative RT-PCR analyses. For transcription activation experiments 250,000 cells/well were plated in a 12 well plate. The cells were transiently transfected with a 1:1:1 mass ratio of the dCas9 plasmid, MS2-P65-HSF1 effector plasmid and the sgRNA plasmid targeting the HBG1 gene or an RFP control plasmid. A total of 1.6 μg plasmid DNA was transfected using Lipofectamine™ 2000 (Life Technologies™) according to manufacturer's protocol. Immediately after transfection, the cells were treated with an appropriate dose of the small molecule inhibitors for 48 hours following which the cells were harvested and RNA was extracted using the EZNA® Total RNA kit I (OMEGA) as per manufacturer's instructions. 1 μg total cellular RNA was used to perform reverse transcription using the High-Capacity cDNA Reverse Transcription Kit (Applied Biosystems™) or the qScript® cDNA Synthesis Kit (QUANTABIO). qPCR reactions were performed to quantify RNA expression using the TaqMan™ probes (Life Technologies™ HBG1/HBG2: Hs00361131_g1 and ACTB: Hs01060665_g1) and TaqMan™ Fast Advanced Master Mix (Life Technologies™) in 5 μL multiplexed reactions and 384-well format using the LightCycler® 480 Instrument II (ROCHE). For each sample, six technical replicates were performed. Data were analyzed using the LightCycler® 480 software (ROCHE) by the ΔΔCt method: Ct values for the gene of interest (HBG1) were normalized to Ct values for the housekeeping gene (ACTB) and fold-changes in the expression level of the gene of interest were normalized to RFP-transfected control. The data are reported as mean S.E.M. for technical replicates.
For transcription activation experiments 250,000 cells/well were plated in a 12 well plate. […] Data were analyzed using the LightCycler® 480 software (ROCHE) by the ΔΔCt method: Ct values for the gene of interest (HBG1) were normalized to Ct values for the housekeeping gene (ACTB) and fold-changes in the expression level of the gene of interest were normalized to RFP-transfected control. […]

| SMILES | cellular ATP-levels (HEK293T cells) | inhibition of the HBG1 transcriptional activation (dCas9) | inhibition of transcriptional activation (dCas9; 10 μM) [%] |
| --- | --- | --- | --- |
| COc1ccc(-c2ccc3c(c2)[C@H]2[C@H](CCN2Cc2ccncc2)[C@@H](CO)N3)cc1 [BRD5779, ((3aR,4S,9bR)-8-(4-Methoxyphenyl)-1-(pyridin-4-ylmethyl)-2,3,3a,4,5,9b-hexahydro-1H-pyrrolo[3,2-c]quinolin-4-yl)methanol] | did not significantly alter | dose-dependent inhibition | – |
| OC[C@H]1Nc2ccc(-c3cccc(F)c3)cc2[C@H]2[C@@H]1CCN2Cc1ccncc1 [BRD7087, ((3aR,4S,9bR)-8-(3-Fluorophenyl)-1-(pyridin-4-ylmethyl)-2,3,3a,4,5,9b-hexahydro-1H-pyrrolo[3,2-c]quinolin-4-yl)methanol] | did not significantly alter | dose-dependent inhibition | > 60 |
